US20140220058A1, “VACCINE COMPOSITION FOR TRANSDERMAL OR MUCOSAL ADMINISTRATION” (NITTO DENKO CORPORATION, priority 2013, published 2014)
“Also recorded” adds a separate entry of the source.

What was measured:
IFN-γ producing cells [1] = assay: Promotion of immunity induction using a mucosal vaccine (conclusion from Tables 4, 5 and 6); format: in vivo, mouse; conditions: acid as component of sublingual liquid formulations
IFN-γ producing cells [2] = assay: Promotion of immunity induction via transdermal immunization (conclusion from Tables 1, 2, 3, 8 and 10); format: in vivo, mouse; conditions: acid as component of tape, liquid or cream formulations

SMILES | promotion of immunity induction using a mucosal vaccine (in words) (IFN-γ producing cells [1]) | promotion of immunity induction via transdermal immunization (in words) (IFN-γ producing cells [2])
O=C(O)c1ccccc1O [salicylic acid] | suitable | suitable; also recorded: particularly preferable
O=C(O)CC(O)(CC(=O)O)C(=O)O [citric acid] | suitable; also recorded: particularly preferable | –
O=C(O)/C=C\C(=O)O [maleic acid] | suitable; also recorded: preferable | suitable; also recorded: preferable
CCCCCCCCCCCCCC(=O)O [myristic acid] | suitable; also recorded: particularly preferable | suitable; also recorded: particularly preferable
CC(O)C(=O)O (stereo not shown) [lactic acid] | suitable; also recorded: particularly preferable | suitable; also recorded: particularly preferable
O=C(O)CC(O)C(=O)O (stereo not shown) [malic acid] | suitable | suitable; also recorded: preferable
CCCCCCCCCCCCCCCCCC(=O)O [stearic acid] | – | suitable; also recorded: particularly preferable
CCCCCCCCCC(=O)O [decanoic acid] | – | suitable; also recorded: particularly preferable
CC(C)CCCCCCCCCCCCCCC(=O)O [isostearic acid] | suitable; also recorded: particularly preferable | suitable; also recorded: preferable
CCCCCCCCCCCC(=O)O [lauric acid] | – | suitable; also recorded: particularly preferable
CS(=O)(=O)O [methanesulfonic acid] | – | suitable; also recorded: particularly preferable
CCCCCCCC/C=C\CCCCCCCC(=O)O [oleic acid] | – | suitable; also recorded: preferable
CCCCCCCCCCCCCCCC(=O)O [palmitic acid] | – | suitable; also recorded: particularly preferable
